From ChEMBL document CHEMBL1127844, “Molecular structures and conformational studies of triarylcyclopropyl and related nonsteroidal antiestrogens” (J Med Chem, 1994)

Each compound was assayed on MCF7 (assay: Percent inhibition of estrogen receptor positive MCF-7 human breast cancer cell proliferation at 10e-7 M).
Format: functional
`CN(C)CCOc1ccc(C2(c3ccccc3)C(c3ccccc3)C2(Cl)Cl)cc1` (configuration not stated) was tested, and the inhibition at 0.1 µM was 41%.
`COc1ccc(C2(c3ccc(OCc4ccccc4)cc3)C(c3ccccc3)C2(Cl)Cl)cc1` (configuration not stated) showed an inhibition at 0.1 µM of 46%.
Work on `ClC1(Cl)C(c2ccccc2)C1c1ccccc1` (configuration not stated) yielded an inhibition at 0.1 µM of 60%.
For `COc1ccc(C2(c3ccc(OCCN(C)C)cc3)C(c3ccccc3)C2(Cl)Cl)cc1` (configuration not stated), the inhibition at 0.1 µM was 35%.
`CC/C(=C(\c1ccccc1)c1ccc(OCCN(C)C)cc1)c1ccccc1` [TAMOXIFEN] was tested, and the inhibition at 0.1 µM was 52%.
With `COc1ccc(C2C(Cl)(Cl)C2(c2ccc(OC)cc2)c2ccc(OCc3ccccc3)cc2)cc1` (configuration not stated) the inhibition at 0.1 µM was 35%.
`COc1ccc(C2(c3ccccc3)C(c3ccccc3)C2(Cl)Cl)cc1` (configuration not stated) was tested, and the inhibition at 0.1 µM was 35%.
